The source of these data is patent publication US4555504A, “Inclusion complex of β-cyclodextrin and digoxin” (Burroughs Wellcome Co., priority 1981, dated 1985).

For data set [1] the following is noted: background statement; cited from earlier work.
The nature of data set [2]: Comparative dissolution of complexed and non-complexed digoxin (B.P. rotating basket). In kind it is physicochemical. Particulars: B.P. 1980 rotating basket, deionised water (1 liter), 37° C., HPLC. As for the experimental part:
The dissolution rate of complexed (1:3 complex, Example 1) and non-complexed digoxin was determined in the British Pharmacopoeia rotating basket apparatus (B.P., 1980). The dissolution medium was deionised water (1 liter) at 37° C. A scoop containing sample (about […] of digoxin or about […] of digoxin/B-cyclodextrin complex) was added to the dissolution medium and allowed to settle to the base of the vessel. Samples (2 ml) were taken at intervals up to 60 minutes via a volumetric pippette and assayed by high performance liquid chromatography to determine cumulative percentage release of drug.

The nature of data set [3]: Comparative solubility of complexed and non-complexed cardiac glycosides in deionised water. In kind it is physicochemical. Particulars: shaken about 8 hours, ambient temperature, HPLC.
Excerpt: The resultant mixture was filtered through a filter paper (Whatman No. 2) and then through a membrane filter (0.02 um, Millipore), the filtrate diluted 100 fold with deionised water and the solution thus obtained assayed for cardiac glycoside in a conventional manner using high performance liquid chromatography.

In brackets after ≈: the same amount, converted by molar mass.

Usually solubility stands for the concentration that dissolves in the medium under given conditions. The low end stands for little dissolved substance, the high end for much dissolved substance. `C[C@H]1O[C@@H](O[C@H]2[C@@H](O)C[C@H](O[C@H]3[C@@H](O)C[C@H](O[C@H]4CC[C@@]5(C)[C@H](CC[C@@H]6[C@@H]5C[C@@H](O)[C@]5(C)[C@@H](C7=CC(=O)OC7)CC[C@]65O)C4)O[C@@H]3C)O[C@@H]2C)C[C@H](O)[C@@H]1O` [Digoxin, digoxin]: in data set [1], the “solubility of digoxin in water” value is on record as approximately 0.005%. The “T80 (time for 80% release)” value in data set [2] was more than 60 min. The compound further displayed a solubility at 8 h in data set [3] of 46 µg/mL (≈ 58.9 µM). Moreover, the solubility thermodynamic at 8 h in data set [3] (read-out: Solubility, Non-complexed (percent)) was found to be 46 µg/mL (≈ 58.9 µM).
